Test results published in ChEMBL document CHEMBL1221208, “ATP-competitive inhibitors of the mitotic kinesin KSP that function via an allosteric mechanism” (Nat Chem Biol, 2007).

Legend:
[1] = molecular target: Centromere-associated protein E (Homo sapiens) (UniProt Q02224); assay: Inhibition of CENPE at 10 uM by puruvate kinsase-lactate dehydrogenase detection system
[2] = molecular target: T1, Kinesin-like protein KIF2C (Homo sapiens) (UniProt Q99661); assay: Inhibition of MCAK at 10 uM by puruvate kinsase-lactate dehydrogenase detection system
T1 sequence (whole entry): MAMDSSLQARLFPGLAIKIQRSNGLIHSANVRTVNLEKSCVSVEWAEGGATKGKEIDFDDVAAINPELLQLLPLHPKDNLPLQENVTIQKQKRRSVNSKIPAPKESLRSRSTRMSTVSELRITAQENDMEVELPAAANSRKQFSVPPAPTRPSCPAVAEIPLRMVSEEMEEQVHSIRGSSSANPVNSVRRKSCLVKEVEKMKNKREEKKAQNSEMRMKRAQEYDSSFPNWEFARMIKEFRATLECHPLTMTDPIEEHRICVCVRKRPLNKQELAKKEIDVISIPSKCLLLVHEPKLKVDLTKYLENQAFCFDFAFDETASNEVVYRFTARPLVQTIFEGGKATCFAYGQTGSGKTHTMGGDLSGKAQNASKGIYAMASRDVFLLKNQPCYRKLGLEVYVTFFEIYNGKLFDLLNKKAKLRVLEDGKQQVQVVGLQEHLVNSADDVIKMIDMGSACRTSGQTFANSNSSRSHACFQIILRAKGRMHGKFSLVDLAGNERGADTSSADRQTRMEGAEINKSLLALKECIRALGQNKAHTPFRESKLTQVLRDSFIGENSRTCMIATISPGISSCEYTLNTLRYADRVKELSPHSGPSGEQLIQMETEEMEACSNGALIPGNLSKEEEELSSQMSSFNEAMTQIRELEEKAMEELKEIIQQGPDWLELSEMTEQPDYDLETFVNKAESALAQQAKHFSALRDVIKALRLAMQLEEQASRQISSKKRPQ

[3] = molecular target: T2, Chromosome-associated kinesin KIF4A (Homo sapiens) (UniProt O95239); assay: Inhibition of Kif4 at 10 uM by puruvate kinsase-lactate dehydrogenase detection system
T2 sequence (whole entry): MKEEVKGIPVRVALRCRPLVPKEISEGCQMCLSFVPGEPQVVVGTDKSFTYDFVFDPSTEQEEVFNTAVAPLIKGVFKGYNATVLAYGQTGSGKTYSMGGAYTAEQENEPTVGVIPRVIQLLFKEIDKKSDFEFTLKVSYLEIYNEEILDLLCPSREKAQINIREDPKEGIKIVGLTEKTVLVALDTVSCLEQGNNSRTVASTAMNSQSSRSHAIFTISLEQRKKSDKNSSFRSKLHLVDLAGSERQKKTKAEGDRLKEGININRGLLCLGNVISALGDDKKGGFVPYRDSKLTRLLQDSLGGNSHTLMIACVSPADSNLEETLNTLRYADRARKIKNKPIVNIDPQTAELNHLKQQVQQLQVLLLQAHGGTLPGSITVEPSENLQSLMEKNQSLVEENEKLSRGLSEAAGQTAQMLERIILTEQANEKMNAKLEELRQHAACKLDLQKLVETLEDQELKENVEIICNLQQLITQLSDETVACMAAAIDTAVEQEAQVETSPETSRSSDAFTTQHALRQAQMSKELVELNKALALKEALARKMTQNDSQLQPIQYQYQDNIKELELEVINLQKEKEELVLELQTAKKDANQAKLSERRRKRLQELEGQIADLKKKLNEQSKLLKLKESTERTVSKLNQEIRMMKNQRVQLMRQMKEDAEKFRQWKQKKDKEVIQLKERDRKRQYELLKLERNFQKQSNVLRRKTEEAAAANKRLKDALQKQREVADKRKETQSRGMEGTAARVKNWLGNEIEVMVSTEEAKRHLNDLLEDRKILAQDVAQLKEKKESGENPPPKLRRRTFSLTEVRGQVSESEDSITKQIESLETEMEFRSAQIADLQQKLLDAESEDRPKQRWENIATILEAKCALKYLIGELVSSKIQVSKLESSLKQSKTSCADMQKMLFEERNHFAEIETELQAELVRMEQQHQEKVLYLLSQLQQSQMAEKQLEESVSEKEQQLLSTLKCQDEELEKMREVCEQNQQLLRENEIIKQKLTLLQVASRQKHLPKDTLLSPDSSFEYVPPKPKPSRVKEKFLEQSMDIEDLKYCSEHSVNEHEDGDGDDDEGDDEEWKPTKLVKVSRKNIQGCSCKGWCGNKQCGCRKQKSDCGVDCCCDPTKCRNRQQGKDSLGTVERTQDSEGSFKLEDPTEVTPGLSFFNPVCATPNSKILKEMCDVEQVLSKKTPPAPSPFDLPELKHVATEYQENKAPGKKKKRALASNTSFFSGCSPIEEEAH

[4] = molecular target: T3, Kinesin-like protein KIF23 (Homo sapiens) (UniProt Q02241); assay: Inhibition of MKLP1 at 10 uM by puruvate kinsase-lactate dehydrogenase detection system
T3 sequence (whole entry): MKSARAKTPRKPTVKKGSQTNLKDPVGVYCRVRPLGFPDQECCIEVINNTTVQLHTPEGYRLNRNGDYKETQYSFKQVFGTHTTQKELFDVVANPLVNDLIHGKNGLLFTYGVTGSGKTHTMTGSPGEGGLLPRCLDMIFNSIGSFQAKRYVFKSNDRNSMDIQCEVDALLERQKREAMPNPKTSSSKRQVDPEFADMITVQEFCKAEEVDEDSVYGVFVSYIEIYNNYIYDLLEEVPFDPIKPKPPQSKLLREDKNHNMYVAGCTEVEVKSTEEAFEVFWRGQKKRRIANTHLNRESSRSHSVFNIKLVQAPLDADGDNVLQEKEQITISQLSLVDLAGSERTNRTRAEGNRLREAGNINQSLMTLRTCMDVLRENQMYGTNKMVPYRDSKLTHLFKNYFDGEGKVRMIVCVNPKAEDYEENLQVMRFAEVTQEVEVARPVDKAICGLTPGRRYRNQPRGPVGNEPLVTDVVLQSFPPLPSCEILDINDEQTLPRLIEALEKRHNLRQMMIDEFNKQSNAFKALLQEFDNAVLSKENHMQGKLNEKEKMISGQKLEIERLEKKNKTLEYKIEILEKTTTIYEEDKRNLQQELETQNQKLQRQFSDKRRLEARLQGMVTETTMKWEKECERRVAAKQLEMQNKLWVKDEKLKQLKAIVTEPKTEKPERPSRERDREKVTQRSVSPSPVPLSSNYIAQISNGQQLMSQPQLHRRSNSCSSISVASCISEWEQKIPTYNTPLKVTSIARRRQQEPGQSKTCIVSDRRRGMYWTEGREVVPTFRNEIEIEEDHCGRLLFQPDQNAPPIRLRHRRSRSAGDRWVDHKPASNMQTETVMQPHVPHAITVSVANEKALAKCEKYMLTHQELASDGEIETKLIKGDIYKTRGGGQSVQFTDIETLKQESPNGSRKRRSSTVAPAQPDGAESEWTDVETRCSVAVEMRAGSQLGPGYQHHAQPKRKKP

Centromere-associated protein E (Homo sapiens), sequence (Q02224 whole entry): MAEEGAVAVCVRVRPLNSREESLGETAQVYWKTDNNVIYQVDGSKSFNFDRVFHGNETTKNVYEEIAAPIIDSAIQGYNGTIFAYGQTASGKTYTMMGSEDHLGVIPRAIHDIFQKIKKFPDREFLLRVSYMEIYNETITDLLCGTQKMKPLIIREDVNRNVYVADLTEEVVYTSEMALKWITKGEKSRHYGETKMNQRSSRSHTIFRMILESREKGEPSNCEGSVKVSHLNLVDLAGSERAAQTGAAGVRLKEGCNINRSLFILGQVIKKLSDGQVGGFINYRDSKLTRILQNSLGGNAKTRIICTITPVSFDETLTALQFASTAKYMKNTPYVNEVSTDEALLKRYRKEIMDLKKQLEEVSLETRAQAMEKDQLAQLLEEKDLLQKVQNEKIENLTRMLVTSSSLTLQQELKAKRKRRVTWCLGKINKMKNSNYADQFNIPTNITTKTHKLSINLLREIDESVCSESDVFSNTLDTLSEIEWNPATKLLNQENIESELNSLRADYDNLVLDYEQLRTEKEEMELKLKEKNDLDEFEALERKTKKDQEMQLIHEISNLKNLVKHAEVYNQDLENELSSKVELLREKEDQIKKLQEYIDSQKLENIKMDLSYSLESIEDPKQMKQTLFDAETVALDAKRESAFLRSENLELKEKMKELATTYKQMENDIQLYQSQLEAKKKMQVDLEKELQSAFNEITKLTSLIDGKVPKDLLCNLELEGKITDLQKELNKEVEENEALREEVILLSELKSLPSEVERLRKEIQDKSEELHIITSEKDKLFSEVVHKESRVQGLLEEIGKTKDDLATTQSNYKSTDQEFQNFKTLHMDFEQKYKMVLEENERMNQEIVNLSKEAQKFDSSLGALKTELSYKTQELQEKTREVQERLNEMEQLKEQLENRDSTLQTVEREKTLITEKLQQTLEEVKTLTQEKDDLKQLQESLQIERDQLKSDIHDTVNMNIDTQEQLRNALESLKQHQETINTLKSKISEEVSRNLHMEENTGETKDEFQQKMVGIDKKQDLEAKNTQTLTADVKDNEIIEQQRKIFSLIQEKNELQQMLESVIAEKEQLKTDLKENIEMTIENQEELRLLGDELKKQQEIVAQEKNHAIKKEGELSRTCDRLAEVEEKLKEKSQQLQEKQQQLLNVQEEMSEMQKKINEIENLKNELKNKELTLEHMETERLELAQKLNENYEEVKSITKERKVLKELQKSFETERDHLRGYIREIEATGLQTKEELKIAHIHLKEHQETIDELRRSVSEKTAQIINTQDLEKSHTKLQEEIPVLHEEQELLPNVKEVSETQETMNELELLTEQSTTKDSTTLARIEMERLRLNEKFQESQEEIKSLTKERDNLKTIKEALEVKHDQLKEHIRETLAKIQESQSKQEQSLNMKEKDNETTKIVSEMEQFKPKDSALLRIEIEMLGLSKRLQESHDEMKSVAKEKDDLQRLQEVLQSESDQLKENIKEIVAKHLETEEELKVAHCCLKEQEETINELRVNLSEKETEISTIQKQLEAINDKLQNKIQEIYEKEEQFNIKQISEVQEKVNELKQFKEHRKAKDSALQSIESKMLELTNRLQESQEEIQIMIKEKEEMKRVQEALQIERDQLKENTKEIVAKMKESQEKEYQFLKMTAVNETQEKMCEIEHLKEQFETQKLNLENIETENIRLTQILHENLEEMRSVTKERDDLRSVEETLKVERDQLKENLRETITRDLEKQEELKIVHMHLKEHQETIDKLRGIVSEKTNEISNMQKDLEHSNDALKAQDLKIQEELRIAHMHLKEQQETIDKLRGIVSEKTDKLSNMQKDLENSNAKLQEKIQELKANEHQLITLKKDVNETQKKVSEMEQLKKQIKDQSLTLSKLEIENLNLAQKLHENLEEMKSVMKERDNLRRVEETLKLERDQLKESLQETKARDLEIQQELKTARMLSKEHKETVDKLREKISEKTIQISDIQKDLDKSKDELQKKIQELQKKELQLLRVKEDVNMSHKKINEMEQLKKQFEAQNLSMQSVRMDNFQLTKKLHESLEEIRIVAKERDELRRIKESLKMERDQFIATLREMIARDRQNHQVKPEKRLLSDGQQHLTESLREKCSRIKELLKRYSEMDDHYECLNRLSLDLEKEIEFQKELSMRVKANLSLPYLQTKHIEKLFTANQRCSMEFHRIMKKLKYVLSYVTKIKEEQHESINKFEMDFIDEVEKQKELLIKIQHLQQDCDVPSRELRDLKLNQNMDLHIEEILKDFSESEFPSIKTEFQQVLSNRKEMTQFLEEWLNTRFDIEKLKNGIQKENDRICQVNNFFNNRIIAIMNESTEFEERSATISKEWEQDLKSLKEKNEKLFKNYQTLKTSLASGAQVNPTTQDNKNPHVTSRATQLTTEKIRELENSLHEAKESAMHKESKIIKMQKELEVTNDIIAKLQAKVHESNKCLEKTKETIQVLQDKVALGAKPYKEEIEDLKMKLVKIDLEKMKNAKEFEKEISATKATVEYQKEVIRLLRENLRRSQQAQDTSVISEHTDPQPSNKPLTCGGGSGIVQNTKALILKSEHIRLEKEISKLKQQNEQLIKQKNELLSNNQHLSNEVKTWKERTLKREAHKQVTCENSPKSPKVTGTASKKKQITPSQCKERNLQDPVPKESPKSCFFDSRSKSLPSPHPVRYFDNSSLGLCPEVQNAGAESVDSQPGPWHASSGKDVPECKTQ

| inhibition [1] [%] | inhibition [2] [%] | inhibition [3] [%] | inhibition [4] [%] | SMILES |
| --- | --- | --- | --- | --- |
| 9 | 8.4 | 6.5 | 7.7 | O=C1CCc2cc(-c3ccc(C(F)(F)F)cc3)ccc2N1 |
| 7 | 8.2 | 4.3 | 7.1 | Cc1ccc(C(=O)N(CCCN)[C@@H](c2nc3cc(Cl)ccc3c(=O)n2Cc2ccccc2)C(C)C)cc1 |
| 11 | 6.9 | 8.2 | 9.4 | NC(=O)Nc1ccc(-c2ccc(C(F)(F)F)cc2)cc1F |
